In patent US20240245702A1, “Inhibition of Lysine Demethylase 1 (Lsd1) Induces Differentiation of Hair Cells” (Massachusetts Eye and Ear Infirmary, priority 2018, published 2024):

Tests used:
Atoh1 = assay: qRT-PCR of Atoh1 in differentiated LCP organoids; type: cell-based, mouse; details: D10, pargyline-treated cells relative to standard treatment
Experimental: (§1) Differentiation of LCPs into a hair cell lineage. […] To analyze the effect of the Lsd1 inhibitors, the LCPs were treated with the small molecules combined with a differentiation drug cocktail, pargyline and CHIR99021 or CHIR99021 at 1, 2, 4, and 10 days (McLean et al., 2017).
RNA extraction and PCR. For the LCPs, the organoids were treated with Cell Recovery Solution for at 1 hour and TrypleE for 20 minutes, then frozen in RLT buffer. RNA extractions were performed using the RNeasy Micro Kit (QIAGEN) and cDNA generated using ImProm-II Reverse Transcription Kit (Promega). TaqMan Real-Time PCR was performed in triplicates using the TaqMan Gene Expression Master Mix (ThermoFisher Scientific) on a StepOne Real-Time PCR machine (ThermoFisher Scientific). Ordinary One-way Anova was used to assess statistical significance. A minimum of three biologically distinct samples were analyzed for each condition.
We next tested the effect of Lsd1 inhibition on hair cell differentiation. In this assay, after the cells were expanded into organoids during the initial proliferation phase, differentiation was initiated using the combination of CHIR99021 and LY411575 and allowed to progress for 10 days (DO to D10). Organoids were monitored for the development of hair cells using FACS and qRT-PCR. […] Conversely, Myo7a expression increases throughout development and is a key marker of mature hair cells. […]

Atoh1-nGFP cells = assay: Hair cell differentiation of LCP organoids, FACS for Atoh1-nGFP cells; type: cell-based, mouse; details: 10 days of differentiation (D10), standard differentiation treatment (CHIR99021 and LY411575) without or with pargyline
Experimental: as §1
For the drug screening experiments, the expanded cells were passaged into a 96 well plate to test varying drug combinations. All experiments were done in triplicate at minimum. Atoh1-nGFP cells were quantified after 10 days in culture. The cell colonies were incubated in Cell Recovery Solution for 1 hour and dissociated into single cells using TrypleE. The total cell number and percentage of GFP+ cells were quantified using fluorescence activated cell sorting (FACS).
We next tested the effect of Lsd1 inhibition on hair cell differentiation. In this assay, after the cells were expanded into organoids during the initial proliferation phase, differentiation was initiated using the combination of CHIR99021 and LY411575 and allowed to progress for 10 days (DO to D10). Organoids were monitored for the development of hair cells using FACS and qRT-PCR. […] Conversely, Myo7a expression increases throughout development and is a key marker of mature hair cells. All hair cell markers tested were elevated with the exception of Atoh1, which had begun to decrease 10 days after the initiation of differentiation.

SMILES: C#CCN(C)Cc1ccccc1 [pargyline, N-Methyl-N-propargylbenzylamine]
- mRNA levels of Atoh1 (Atoh1): no difference
- percentage of Atoh1-nGFP cells in culture (Atoh1-nGFP cells): 39%
